In US20220241409A1, “WATER SOLUBLE ADJUVANT AND COMPOSITION CONTAINING SAME” (Sumitomo Dainippon Pharma Co., Ltd., priority 2019, published 2022):

Experiments:
[1] = tested on: mouse splenocyte; test: Activation of immune cells, mouse splenocyte cytokine/chemokine production (Test 5); type: cell-based; settings: 200 nmol/L, one day, compared with only DMSO
Method: Splenocyte was derived from the spleen of a HLA-A*02:01 transgenic mouse, and cryopreserved. Cryopreserved mouse splenocyte was reconstituted, suspended in RPMI 1640 medium with 10% FBS, and seeded on a U-bottom 96 well plate at 4×10^5 cells/well. The compound prepared in Example 3 was added in the presence of 0.1% (v/v) DMSO to the wells at a final concentration of 200 nmol/L. The plate was incubated at 37° C. under an atmosphere of 5% CO2. One day after the incubation, the culture supernatant was collected. The concentration of cytokine and chemokine (GM-CSF, IFNγ, IL-6, IP-10, MCP-1, MIP-1α, MIP-1β, Rantes, and TNFα) which were included in each culture supernatant was measured with Milliplex Mouse Cytokine/Chemokine Magnetic Bead Panel kit and Luminex system in accordance with the manufacturer's protocol.
The results are shown in FIG. 3-A to FIG. 3-I. The white bar indicates the mean number of the concentration of cytokine and chemokine in the culture supernatant from three wells to which only DMSO was added, and the black bar indicates the mean number of the concentration of cytokine and chemokine in the culture supernatant from three wells to which the compound prepared in Example 3 was added. The compound prepared in Example 3 made the yield of cytokine and chemokine higher, compared with the case of only DMSO.

[2] = tested on: Antigen-Specific CTL; test: Immune response of antigen-specific CTL for peptide and tumor cell, vaccine b (Test 12); type: in vivo, mouse
Method: Vaccine b prepared like Test 8 was injected to a HLA-A*02:01 transgenic mouse intradermally at the tail base area in an amount for administering 300 μg of Compound of formula 4 per body and 225 μg of Peptide SEQ ID No. 3 per body. Or, in the step of preparing vaccine b, the compound prepared in Example 2 was added to the diluted peptide solution to prepare a vaccine, and the prepared vaccine was injected to a HLA-A*02:01 transgenic mouse intradermally at the tail base area in an amount for administering 300 μg of Compound of formula 4 per body, 225 μg of Peptide SEQ ID No. 3 per body, and 325 ng of the compound prepared in Example 2 per body. One week later, the mice were sacrificed with CO2 gas, and then spleens removed from the mice. A splenocyte suspension was prepared from the spleens with CTM. Like Test 6, Peptide (SEQ ID No. 1) was added to the splenocyte-containing ELISPOT plate, and the plate was incubated overnight at 37° C. under an atmosphere of 5% CO2 to re-stimulate the peptide in vitro. Then, after removal of the supernatant from the wells, stained spots on the ELISPOT plate were counted. […] The concentration of mouse IFN-γ in the culture supernatant was measured with an ELISA kit.

[3] = tested on: HLA-A*24:02 transgenic mouse; test: In vivo adjuvant activity, CTL induction with vaccine f, IFNγ ELISPOT (Test 19); settings: 0.4 nmol per body added to vaccine f versus no compound; twice
Method: The in vivo adjuvant activity of the compound of Example 2 was evaluated in the following procedure. To a vaccine prepared by mixing Peptide SEQ ID No. 5 prepared in Reference example 19 with a preliminarily-emulsified composition (hereinafter, referred to as “vaccine f”) was added the compound prepared in Example 2 to prepare a vaccine. The vaccine was administered to a HLA-A*24:02 transgenic mouse, and the adjuvant activity of the vaccine was evaluated by the method of testing antigen-specific CTL induction. The CYTWNQMNL (SEQ ID No. 2) in Peptide SEQ ID No. 5 corresponds to an antigen peptide derived from an HLA-A*24:02-restricted WT1 protein.
The character for inducing CTLs specific to the antigen peptide (SEQ ID No. 2) by vaccine f was evaluated by measuring whether IFNγ can be produced upon stimulation of splenocytes from the mouse with the peptide. In addition, the character for exerting in vivo adjuvant activity by the compound in Example 2 was evaluated by comparing the number of CTLs induced by vaccine f and the number of CTLs induced by the vaccine prepared by adding the compound prepared in Example 2 to vaccine f, and checking presence or absence of the increase on the number.
Specifically, Peptide of SEQ ID No. 5 was dissolved in DMSO, and then diluted with water for injection to concentrations of 3 mg/mL. […]

[4] = tested on: Antigen-Specific CTL; test: Action of anti-PD-1 antibody in immune response of antigen-specific CTL for peptide and tumor cell (Test 13); type: in vivo, mouse; settings: splenocyte of mice receiving vaccine b with Example 2 (325 ng per body, twice); antibody 37.5 μg/mL; culture with tumor cells and Peptide SEQ ID No. 1 about three days
Method: Vaccine b prepared like Test 8 was injected to a HLA-A*02:01 transgenic mouse intradermally at the tail base area in an amount for administering 300 μg of Compound of formula 4 per body and 225 μg of Peptide SEQ ID No. 3 per body. Or, a vaccine prepared by adding the compound prepared in Example 2 to vaccine b was injected to a HLA-A*02:01 transgenic mouse intradermally at the tail base area in an amount for administering 300 μg of Compound of formula 4 per body, 225 μg of Peptide SEQ ID No. 3 per body, and 325 ng of the compound prepared in Example 2 per body. The administrations were done twice, which had one week interval. One week after the final administration, the mice were sacrificed with CO2 gas, and then spleens removed from the mice. A splenocyte suspension was prepared from the spleens with CTM. And, like Test 11, Peptide SEQ ID No. 1 was pulsed to a part of the splenocyte, and the cell was mixed with LLC-HHD-WT1 tumor cell. To the mixed cells was added an isotype control antibody (Rat IgG2ax, BD Pharmingen) or anti-PD-1 antibody (clone 29F.1A12, Biolegend) at a final concentration of 37.5 μg/mL, and the mixture was cultured at 37° C. under an atmosphere of 5% CO2 for about three days. The concentration of mouse IFN-γ in the culture supernatant was measured with an ELISA kit.

SMILES | yield of cytokine and chemokine (GM-CSF, IFNγ, IL-6, IP-10, MCP-1, MIP-1α, MIP-1β, Rantes, TNFα) [1] | CTLs specific to Peptide (SEQ ID No. 1) in splenocyte, relative to vaccine b without compound ([2]; IFN-γ ELISPOT, 325 ng per body in vaccine b, one week later) | amount of IFN-γ produced from the CTL, relative to vaccine b without compound ([2]; about three days culture with LLC-HHD-WT1 tumor cells and Peptide SEQ ID No. 1, ELISA, average of 3 wells) | CTL counts responsive to Peptide of SEQ ID No. 2 [3] | amount of IFN-γ produced from the CTL with anti-PD-1 antibody relative to isotype control antibody [4]
CCCCOc1nc(N)c2[nH]c(=O)n(Cc3ccc(CN(C)CCOCCOCCOCCOCCO)cc3)c2n1 [Example 3, 6-amino-2-butoxy-9-{[4-(16-hydroxy-2-methyl-5,8,11,14-tetraoxa-2-azahexadecan-1-yl)phenyl]methyl}-7,9-dihydro-8H-purin-8-one] | higher | – | – | – | –
CCCCOc1nc(N)c2[nH]c(=O)n(Cc3ccc(CN(C)CCOCCOCCOCCOCCO)nc3)c2n1 [Example 2, 6-amino-2-butoxy-9-{[6-(16-hydroxy-2-methyl-5,8,11,14-tetraoxa-2-azahexadecan-1-yl)pyridin-3-yl]methyl}-7,9-dihydro-8H-purin-8-one-trifluoroacetate] | – | 1.8 times | 8.7 times | more | 4 times
